The values that follow are results of earlier work, collected in US7485705B2, “Water-soluble tetrazolium compounds” (Dojindo Laboratories, priority 2003, dated 2009).

As for `COc1cc(-c2ccc(-[n+]3nc(-c4ccccc4)nn3-c3ccc([N+](=O)[O-])cc3)c(OC)c2)ccc1-[n+]1nc(-c2ccccc2)nn1-c1ccc([N+](=O)[O-])cc1.[Cl-].[Cl-]` [nitro-TB, 3,3′-[3,3′-dimethoxy-(1,1′-biphenyl)-4,4′-diyl]-bis-[2-(4-nitrophenyl)-5-2H tetrazolium chloride]], the “water solubility of the formazan formed upon receiving hydrogen” value was “insoluble in water”.

Take `Cc1nc(-[n+]2nc(-c3ccccc3)nn2-c2ccccc2)sc1C.[Br-]` [MTT, [3-(4,5-dimethylthiazol-2-yl)-2,5-diphenyltetrazolium bromide]]: the “water solubility of the formazan formed upon receiving hydrogen” value was “insoluble in water”.
